“Also recorded” adds a separate entry of the source.
Assays:
[1] = test system: Balb/c mice, depilated area; assay: Test for hair growth in Balb/c mice (2), once a day for four weeks; assay type: in vivo; settings: applied once a day for four weeks
Description: Balb/c mice, 5-6 weeks old, were purchased and shaved on the side to remove hair partially, followed by applying a depilatory cream to the shaved area to remove hair therefrom completely. The mice which were not completely depilated were excluded from the test. The suitable mice were randomly housed in cages at a population of three per cage. A total of five cages were employed.
The mice were left for one day after hair removal, and then the depilated area was coated once a day with the NAPS-1-P-containing liposomes prepared in Example 1. A total of 14 rounds of application were conducted. Hair growth was compared between treated groups and non-treated groups.
The NAPS-1-P 0.5%-containing liposomes (Example 1), the NAPS-1-P 1.0%-containing liposomes (Example 2), and the PhS-1-P 0.5%-containing liposomes (Example 4) were tested for hair growth activity in the same manner as in Experimental Example 1, with the exception that they were applied once a day for four weeks. In this context, Rogaine 5% (minoxidil 5% solution) was used as a positive control.

[2] = test system: CAM (chorioallantoic membrane); assay: Test for angiogenic activity, CAM (chorioallantoic membrane) assay; assay type: in vivo, chicken; settings: for Angiogenic activity compared to the control: CAM assay, Table 3 and FIG. 5
Experimental: NAPS-1-P 0.5%-containing liposomes and the PhS-1-P 0.5%-containing liposomes, respectively prepared in Examples 1 and 4, were assayed for angiogenesis, with the use of phosphate buffered saline as a negative control, sphingosine-1-phosphate (PS-1-P) as a positive control, and the angiogenesis inhibitor trimethyl phytosphingosine (TMP) as a suppressive control.
For angiogenesis assay, CAM (chorioallantoic membrane) was used as a model. CAM from developing chicken eggs is routinely used in biological and biomedical research to investigate angiogenesis.
Fertile hen's eggs which were within one day after being laid, were purchased. Three days later, 6 mL of the white was removed from the fertile hen's eggs using a syringe, as illustrated in i of FIG. 4. Afterward, the eggs were opened at the top, as illustrated in ii of FIG. 4. From three days after egg-laying, the embryo started to develop. The membrane surrounding the embryo is CAM. Then, a cover slip on which a test drug was dropwise loaded and dried was placed on CAM, as illustrated in iii of FIG. 4. After the lapse of three days, the eggs were examined for drug-induced angiogenesis under a microscope, as illustrated in iv of FIG. 4.

[3] = microscopic observation three days after placing test drug on CAM

Row | Compound | Hair growth promoting activity, comparison between substances, concentrations or with minoxidil 5% solution (FIGS. 2 and 3) [1] | Angiogenic activity compared to the control [2] | Angiogenesis results: count graded + (weakly promotive of angiogenesis) [2, 3] | Angiogenesis results: count graded ++ (highly promotive of angiogenesis) [2, 3] | Angiogenesis results: count graded +/− (insignificantly promotive of angiogenesis) [2, 3] | Angiogenesis results: count graded − (weakly inhibitive of angiogenesis) [2, 3] | Angiogenesis results: count graded −− (highly inhibitive of angiogenesis) [2, 3]
1 | CCCCCCCCCCCCCC[C@@H](O)[C@@H](O)[C@H](COP(=O)(O)O)NC(C)=O [NAPS-1-P, N-acetylphytosphingosine-1-phosphate] | superior of NAPS-1-P to PhS-1-P | significant angiogenic activity; also recorded: peak activity | 3 | 7 |  |  | 
2 | CCCCCCCCCCCCCC[C@@H](O)[C@@H](O)[C@@H](N)COP(=O)(O)O [PhS-1-P, phytosphingosine-1-phosphate] |  | significant angiogenic activity | 5 | 4 | 1 |  | 
3 | CCCCCCCCCCCCC/C=C/[C@@H](O)[C@@H](N)COP(=O)(O)O [PS-1-P, sphingosine-1-phosphate, reference compound] |  |  | 5 | 4 | 1 |  | 
4 | trimethyl phytosphingosine [TMP, reference compound] |  |  |  |  |  | 2 | 8

— patent US8729052B2, “Composition for the prevention and treatment of alopecia, or for hair growth” (Phytos Co., Ltd., priority 2008, dated 2014)
